Data published in US20250032590A1, “PARATHYROID HORMONE COMPOUNDS IN THE TREATMENT OF HYPOPARATHYROIDISM” (AMOLYT PHARMA, priority 2023, published 2025).
Read-outs that look alike come from different tables or passages of the source.

How the values were obtained:
[1] = test system: patients with HP; conditions: cited from earlier work; for urinary calcium excretion: clinical studies; for control of calcium levels: patients with HP
[2] = test system: normal cynomolgus monkeys; experiment: Blood calcium after single injection in normal cynomolgus monkeys (Example 5); assay type: in vivo, cynomolgus monkey; conditions: single dose 10 nmole/kg (AZP-3601 42.7 μg/kg, PTH (1-84) 95 μg/kg, PTH (1-34) 42 μg/kg), AZP-3601 also 10.7 μg/kg (2.5 nmole/kg)
Experimental: To further examine how the potent and sustained biological activity induced by AZP-3601 could translate into potential clinical benefit for […] patients, its activity was examined in normal cynomolgus monkeys, a species much closer to humans and the most relevant for first in human dose-selection. Single injections of AZP-3601 were administered to normal cynomolgus monkeys. […] The dissociation between pharmacokinetic profile and pharmacodynamic effect is due to the short circulating half-life of AZP-3601 as opposed to the prolonged signaling caused by AZP-3601's potent interaction with the R^0 conformation of the PTH1 receptor.
In a second study as illustrated in panel B of FIG. 5, monkeys were injected with a single dose of either natural PTH (1-84) at 95 μg/kg, natural PTH (1-34) at 42 μg/kg or AZP-3601 at 42.7 μg/kg, which were equal doses of 10 nmole/kg, adjusted for the molecular weight of the individual compounds. In addition, a lower dose of 10.7 μg AZP-3601/kg (2.5 nmole/kg) was also tested.

[3] = test system: PTX mice; experiment: Serum calcium after single dosing in HP PTX mouse model (Example 1); assay type: in vivo; conditions: PTX mice, single dosing; AZP-3601 20, 40 or 80 μg/kg; PTH (1-34) 200 μg/kg
Source text: In FIG. 1, the black line indicates the impact of PTX in mice, resulting in serum calcium levels well below normal levels.

[4] = test system: hypoparathyroid mice; conditions: single sc, AZP-3601 10 to 20 nmol/kg, PTH(1-34) at a higher dose; cited from earlier work
[5] = test system: TPTX rats; experiment: Distal femur BMD by qCT in TPTX rats after 14-day treatment at doses that normalize serum calcium (Example 6); assay type: in vivo, rat
Experimental: To directly compare the effect of daily subcutaneous injection of AZP-3601 to daily subcutaneous injection and continuous infusion of PTH(1-34), dose levels for each regimen that normalized serum calcium levels in TPTX rats were utilized. These doses corresponded to 50 nmoles/kg/day (205 μg/kg/day) for PTH(1-34) injected daily, 3 nmoles/kg/day (12.3 μg/kg/day) for PTH(1-34) continuously infused, and 1 nmole/kg/day (4.2 μg/kg/day) for AZP-3601 injected daily. After 14 days of treatment, femurs were collected and examined for bone mineral density (BMD) by quantitative computed tomography.

[6] = test system: patients with HP; conditions: cited from earlier work
[7] = test system: TPTX rats; conditions: rat, in vivo; cited from earlier work
[8] = test system: TPTX rats; experiment: BMD (DXA) and bone structure (micro-CT) in TPTX rats after repeated daily dosing (Example 7); assay type: in vivo, rat; conditions: once daily sc, AZP-3601 3.8 to 30.7 μg/kg/day, versus vehicle
Experimental: To examine the effect of repeated dosing with AZP-3601, TPTX rats were treated with daily subcutaneous injections of either vehicle or AZP-3601 with doses ranging from 3.8 to 30.7 μg/kg/day (0.9-7.2 nmole/kg/day). As additional controls, a separate group of TPTX rats received daily injections of natural PTH (1-84), and a group of normal (with intact thyroid and parathyroid glands, or sham) rats were injected with vehicle. […] Both whole femurs and lumbar spine were analyzed using a technique called dual-energy x-ray absorptionametry, or DXA, which measures BMD.

[9] = test system: TPTX rats; experiment: Serum calcium and phosphate, 28-day daily sc dosing in HP TPTX rat model (Example 2); assay type: in vivo; conditions: once daily sc for 28 days
Experimental: Thyroid-parathyroidectomized, or TPTX, rats were treated with daily subcutaneous injection of AZP-3601 at doses ranging from 3.8 μg/kg/day to 30.7 μg/kg/day. Treatment was continued for 28 days. […] The increase in calcium accumulated over time (over the first 15 to 21 days), but became more constant thereafter, indicating the development of a steady-state effect (FIG. 2). Due to the cumulative effect, lower doses of AZP-3601 were required to eventually increase blood calcium levels into the normal range as compared to the dose required with a single injection.

Natpara™: recombinant natural human PTH ((rh)PTH(1-84)), approved adjunct to calcium and vitamin D in HP
urinary calcium excretion [1]: failed to demonstrate reduction of urinary calcium excretion
urinary calcium excretion ([1]; listed as (rh)PTH(1-84)): elevated urinary calcium excretion in many subjects
adverse effects ([1]; human, in vivo): adverse effects such as hyper/hypocalcemia and vasoactive events
half-life ([1]; human, in vivo): short half-life
control of calcium levels [1]: does not control calcium levels for the entire day
control of calcium levels ([1]; listed as (rh)PTH(1-84)): lack of 24-hour control of serum calcium

PTH(1-34) (SVSEIQLMHNLGKHLNSMERVEWLRKKLQDVHNF) [natural PTH (1-34)]
effect on blood calcium, second study [2]: only modestly increased blood calcium
effect on serum calcium [3]: transient elevation in serum calcium
duration of decreased serum inorganic phosphorus [4]: < 4 h
duration of increased serum calcium [4]: < 8 h
femur BMD by quantitative computed tomography, continuous infusion ([5]; 14 days, 3 nmoles/kg/day continuously infused): significant decrease in BMD
femur BMD by quantitative computed tomography, daily injection ([5]; 14 days, PTH(1-34) 50 nmoles/kg/day, AZP-3601 1 nmole/kg/day): significant increase in BMD
dose that normalized serum calcium levels, continuous infusion ([5]; continuously infused): 3 nmol/kg/day
dose that normalized serum calcium levels, daily subcutaneous injection ([5]; injected daily): 50 nmol/kg/day

TransCon™PTH: sustained-release, injectable prodrug formulation of native PTH (1-34), Ascendis Pharma A/S
hypercalciuria after treatment ([6]; Phase 3 trial, 6 months of treatment): a number of patients are still hypercalciuric
mean T-scores ([6]; human, in vivo): decrease in mean T-scores
serum calcium levels ([6]; human, in vivo): provides stable serum calcium levels
mean 24-hour urine calcium levels ([6]; patients with HP): decrease mean 24-hour urine calcium levels
pharmacokinetic profile [7]: continuous, non-pulsatile, infusion-like pharmacokinetic profile

B1: PTH (1-84) (protein, UniProt P01270 32-115, looked up)
Parathyroid hormone: SVSEIQLMHNLGKHLNSMERVEWLRKKLQDVHNFVALGAPLAPRDAGSQRPRKKEDNVLVESHEKSLGEADKADVNVLTKAKSQ
modifications: Parathyroid hormone
notes: natural PTH (1-84), comparator in rats and monkeys
effect on blood calcium, second study [2]: only modestly increased blood calcium
BMD of whole femur and lumbar spine by DXA [8]: statistically significant increase in BMD
effect on blood phosphate levels [9]: only marginal reductions in blood phosphate levels
effect on serum/blood calcium levels ([9]; AZP-3601 3.8 to 30.7 μg/kg/day): no persistent increase in blood calcium levels
